# Active and inactive are the calls of the source.
# Columns and labels:
# [1] = biological target: T1, Intestinal-type alkaline phosphatase (Homo sapiens, UniProt P09923); assay: human IAP activators, dose response, biochemical, luminescent, uHTS hits, set 2 (AID 488817); type: functional;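 also: potency of activators that raise enzyme activity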
# CHO = assay: cytotoxicity in TLR9-MyD88 CHO cells, dose response, cytotoxicity control for TLR9-MyD88 binding inhibitor project, cell-based, luminescence (AID 588339); type: functional, hamster; conditions: Cricetulus griseus;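 also: CHO cells stably coexpressing TLR9 and MyD88 fusions from primary screen; compound exposure lasted 48 hours before viability readout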
# [2] = biological target: T2, Endoribonuclease toxin MazF (Escherichia coli K-12, UniProt P0AE70); assay: fluorescent RNA oligo signal without MazF, dose response, counter-screen for MazEF activator project, biochemical, fluorescence, single-stranded RNase substrate (AID 588502); type: functional
# T2 sequence (P0AE70 whole entry): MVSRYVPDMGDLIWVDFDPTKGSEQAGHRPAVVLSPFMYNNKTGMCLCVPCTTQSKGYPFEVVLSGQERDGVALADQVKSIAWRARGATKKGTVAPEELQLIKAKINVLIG
# [3] = microbe, parasite or virus in culture; type: functional; conditions: Mycobacterium tuberculosis
# [4] = biological target: T3, Mannose-6-phosphate isomerase (Homo sapiens, UniProt P34949); assay: PMI enzyme inhibitors, confirmation, biochemical, fluorescence intensity (AID 1535)
# T3 sequence (P34949 whole entry): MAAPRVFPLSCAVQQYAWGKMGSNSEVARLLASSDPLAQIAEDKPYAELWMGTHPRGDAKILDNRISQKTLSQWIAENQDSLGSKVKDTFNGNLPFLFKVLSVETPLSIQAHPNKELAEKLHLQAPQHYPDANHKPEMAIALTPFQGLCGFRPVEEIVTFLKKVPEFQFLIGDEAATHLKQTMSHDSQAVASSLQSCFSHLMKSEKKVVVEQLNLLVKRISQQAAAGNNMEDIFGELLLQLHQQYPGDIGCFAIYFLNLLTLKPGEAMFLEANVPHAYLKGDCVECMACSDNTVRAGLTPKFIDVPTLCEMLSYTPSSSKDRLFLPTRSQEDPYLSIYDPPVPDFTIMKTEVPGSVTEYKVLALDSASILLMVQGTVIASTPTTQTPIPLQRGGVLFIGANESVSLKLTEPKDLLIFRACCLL
# [5] = biological target: Heat shock protein HSP 90-alpha (Homo sapiens, UniProt P07900); type: functional, organism-based
# [6] = biological target: T3, Mannose-6-phosphate isomerase; assay: Confirmation of compounds inhibiting phosphomannose isomerase (PMI) via a fluorescence intensity assay using a high concentration of mannose 6-phosphate. [Related pubchem assays (depositor defined):AID1209, AID1220, AID1545, AID1553, AID1620]
# [7] = biological target: Intestinal-type alkaline phosphatase (Mus musculus, UniProt P24822); assay: PubChem AID 488874; type: functional
# [8] = biological target: T1, Intestinal-type alkaline phosphatase; assay: human intestinal alkaline phosphatase activators, dose response, biochemical, luminescence, uHTS hits (AID 463120); type: functional
# [9] = biological target: T2, Endoribonuclease toxin MazF; assay: MazF toxin RNase activators, dose response, biochemical, fluorescence, single-stranded RNA substrate, uHTS hits (AID 588481); type: functional
# [10] = biological target: Alkaline phosphatase, placental type (Homo sapiens, UniProt P05187); assay: PLAP enzyme inhibitors, confirmation, biochemical, luminescence (AID 1512); type: functional
# [11] = biological target: T4, E3 ubiquitin-protein ligase XIAP (Homo sapiens, UniProt P98170); assay: Counter Screen using XIAP-Bir3 for Chemical Antagonists of Bir1/2 domains of IAP-family anti-apoptotic proteins. [Related pubchem assays (depositor defined):AID1018, AID1449, AID1514, AID1638, AID1749, AID1750, AID488957, AID488963]
# [12] = biological target: T5, Microphthalmia-associated transcription factor (Homo sapiens, UniProt O75030); assay: TRPM1 promoter luciferase signal decrease, dose response, MITF inhibitor project, cell-based, SK-MEL-5, cherry-picked, set 3 (AID 493073); type: functional
# T5 sequence (O75030 whole entry): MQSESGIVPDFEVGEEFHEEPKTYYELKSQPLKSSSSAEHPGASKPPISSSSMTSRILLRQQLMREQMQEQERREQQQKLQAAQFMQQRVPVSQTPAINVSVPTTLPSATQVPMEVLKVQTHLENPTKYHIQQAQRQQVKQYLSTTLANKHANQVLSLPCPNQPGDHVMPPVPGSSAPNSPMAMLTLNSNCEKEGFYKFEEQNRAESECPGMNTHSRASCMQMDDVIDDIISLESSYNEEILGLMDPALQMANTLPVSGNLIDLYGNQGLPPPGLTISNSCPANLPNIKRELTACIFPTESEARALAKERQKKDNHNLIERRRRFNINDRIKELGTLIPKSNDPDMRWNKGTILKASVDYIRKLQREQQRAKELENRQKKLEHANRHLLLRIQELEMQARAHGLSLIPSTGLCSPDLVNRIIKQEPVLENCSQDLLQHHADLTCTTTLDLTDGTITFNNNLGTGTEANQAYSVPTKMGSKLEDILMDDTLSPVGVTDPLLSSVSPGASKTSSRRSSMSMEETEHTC
# [13] = biological target: T5, Microphthalmia-associated transcription factor; assay: TRPM1 promoter luciferase signal decrease, dose response, MITF inhibitor project, cell-based, SK-MEL-5, cherry-picked, set 4 (AID 493102); type: functional
# [14] = biological target: T5, Microphthalmia-associated transcription factor; assay: MITF Measured in Cell-Based System Using Plate Reader - 2084-01_Inhibitor_DoseNoFile_CherryPick_Activity_Set2. [Related pubchem assays (depositor defined):AID488944]; type: functional
# [15] = biological target: T4, E3 ubiquitin-protein ligase XIAP; assay: XIAP antagonists, biochemical, IAP family, fluorescence polarization (AID 1018); type: functional
# [16] = biological target: T6, Alkaline phosphatase, tissue-nonspecific isozyme (Homo sapiens, UniProt P05186); assay: human TNAP enzyme inhibitors, SAR follow-up, biochemical, luminescent, dose response (AID 1056)
# T6 sequence (P05186 whole entry): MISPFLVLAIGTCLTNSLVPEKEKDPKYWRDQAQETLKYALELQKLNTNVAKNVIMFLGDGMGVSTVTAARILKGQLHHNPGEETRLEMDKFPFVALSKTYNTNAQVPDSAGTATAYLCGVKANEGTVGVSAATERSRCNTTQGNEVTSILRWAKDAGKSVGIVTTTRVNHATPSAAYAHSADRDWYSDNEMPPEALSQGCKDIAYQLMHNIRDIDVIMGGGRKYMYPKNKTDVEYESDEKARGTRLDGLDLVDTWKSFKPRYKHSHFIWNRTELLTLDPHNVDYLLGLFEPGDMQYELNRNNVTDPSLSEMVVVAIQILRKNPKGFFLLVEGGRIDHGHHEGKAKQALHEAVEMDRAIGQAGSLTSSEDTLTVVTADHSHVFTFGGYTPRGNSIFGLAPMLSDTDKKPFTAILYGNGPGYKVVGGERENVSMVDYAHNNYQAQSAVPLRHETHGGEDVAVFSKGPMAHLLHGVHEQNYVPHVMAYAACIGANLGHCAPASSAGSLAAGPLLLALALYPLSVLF
# [17] = biological target: Glyceraldehyde-3-phosphate dehydrogenase (Homo sapiens, UniProt P04406)
# [18] = Luminescence Cell-Based Dose Response HTS to Identify Inhibitors of 5'UTR Stem-Loop Driven Prion Protein mRNA Translation in H4 Neuroglioblastoma Cells. [Related pubchem assays: 1827 (Project Summary), 1813 (Primary HTS)]; type: functional
# [19] = inhibitors of firefly luciferase expression or activity, dose response, H4 neuroglioma cells, luminescence (AID 1990); type: functional, cell-based
# [20] = biological target: Type-1 angiotensin II receptor (Homo sapiens, UniProt P30556); assay: AT1 receptor agonists, dose response, selectivity assay for APJ receptor agonist project, cell-based, uHTS hits (AID 488865); type: functional;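 also: beta-arrestin recruitment to AT1 measured by enzyme fragment complementation luminescence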
# [21] = inhibitors of SNCA 5'UTR-driven reporter translation, confirmation, H4 neuroglioma cells, luminescence (AID 1988); type: functional, cell-based
# Coagulation factor XII = biological target: T7, Coagulation factor XII (Homo sapiens, UniProt P00748); assay: Factor XIIa Dose Response Confirmation from Single Well HTS. [Related pubchem assays (depositor defined):AID701]; type: functional
# T7 sequence (P00748 whole entry): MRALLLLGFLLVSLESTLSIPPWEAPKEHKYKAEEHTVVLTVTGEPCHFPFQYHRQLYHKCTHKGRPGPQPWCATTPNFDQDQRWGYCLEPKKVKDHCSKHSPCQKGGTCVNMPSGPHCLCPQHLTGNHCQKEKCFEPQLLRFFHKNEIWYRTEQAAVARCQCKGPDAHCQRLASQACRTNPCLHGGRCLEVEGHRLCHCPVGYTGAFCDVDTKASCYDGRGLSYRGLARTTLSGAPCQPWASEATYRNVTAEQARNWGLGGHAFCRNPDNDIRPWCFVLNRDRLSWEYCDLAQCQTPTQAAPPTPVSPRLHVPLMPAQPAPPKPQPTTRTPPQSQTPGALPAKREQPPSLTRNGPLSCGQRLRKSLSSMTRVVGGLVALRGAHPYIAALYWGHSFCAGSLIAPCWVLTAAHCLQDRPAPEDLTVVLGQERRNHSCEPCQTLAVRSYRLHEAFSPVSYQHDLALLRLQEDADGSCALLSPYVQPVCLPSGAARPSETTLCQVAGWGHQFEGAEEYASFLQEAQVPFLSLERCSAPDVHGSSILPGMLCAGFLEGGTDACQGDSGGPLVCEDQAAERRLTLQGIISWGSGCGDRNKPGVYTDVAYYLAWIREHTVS
# Sequence of Alkaline phosphatase, placental type (P05187 whole entry): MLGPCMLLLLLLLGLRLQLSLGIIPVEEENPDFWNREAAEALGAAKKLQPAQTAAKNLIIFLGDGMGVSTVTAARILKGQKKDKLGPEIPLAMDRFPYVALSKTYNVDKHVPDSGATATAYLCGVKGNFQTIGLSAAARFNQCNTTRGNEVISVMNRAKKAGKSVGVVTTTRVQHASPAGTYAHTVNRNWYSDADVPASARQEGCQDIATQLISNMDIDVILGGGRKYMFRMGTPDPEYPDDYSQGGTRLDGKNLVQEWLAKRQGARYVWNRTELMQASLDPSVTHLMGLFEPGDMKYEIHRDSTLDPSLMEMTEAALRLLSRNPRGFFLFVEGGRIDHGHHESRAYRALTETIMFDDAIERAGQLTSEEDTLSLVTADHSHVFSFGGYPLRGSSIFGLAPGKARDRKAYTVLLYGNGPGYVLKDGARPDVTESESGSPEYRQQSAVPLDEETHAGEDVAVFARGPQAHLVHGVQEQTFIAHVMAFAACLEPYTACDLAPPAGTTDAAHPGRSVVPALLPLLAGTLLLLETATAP
# T4 sequence (P98170 whole entry): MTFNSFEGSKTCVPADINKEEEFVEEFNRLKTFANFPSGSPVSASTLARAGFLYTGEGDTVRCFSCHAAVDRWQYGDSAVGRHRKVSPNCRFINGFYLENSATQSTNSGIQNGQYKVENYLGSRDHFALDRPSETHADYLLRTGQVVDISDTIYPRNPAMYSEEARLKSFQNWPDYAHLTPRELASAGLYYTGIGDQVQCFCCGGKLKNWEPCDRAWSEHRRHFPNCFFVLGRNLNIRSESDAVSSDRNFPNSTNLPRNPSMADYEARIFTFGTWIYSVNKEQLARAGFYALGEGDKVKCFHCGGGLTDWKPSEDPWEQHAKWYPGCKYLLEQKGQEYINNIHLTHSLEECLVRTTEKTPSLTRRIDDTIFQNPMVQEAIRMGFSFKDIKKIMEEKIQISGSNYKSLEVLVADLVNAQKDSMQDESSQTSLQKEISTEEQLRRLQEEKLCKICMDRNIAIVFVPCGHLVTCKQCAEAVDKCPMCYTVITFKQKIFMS
# T1 sequence (P09923 whole entry, the tested form may be a part): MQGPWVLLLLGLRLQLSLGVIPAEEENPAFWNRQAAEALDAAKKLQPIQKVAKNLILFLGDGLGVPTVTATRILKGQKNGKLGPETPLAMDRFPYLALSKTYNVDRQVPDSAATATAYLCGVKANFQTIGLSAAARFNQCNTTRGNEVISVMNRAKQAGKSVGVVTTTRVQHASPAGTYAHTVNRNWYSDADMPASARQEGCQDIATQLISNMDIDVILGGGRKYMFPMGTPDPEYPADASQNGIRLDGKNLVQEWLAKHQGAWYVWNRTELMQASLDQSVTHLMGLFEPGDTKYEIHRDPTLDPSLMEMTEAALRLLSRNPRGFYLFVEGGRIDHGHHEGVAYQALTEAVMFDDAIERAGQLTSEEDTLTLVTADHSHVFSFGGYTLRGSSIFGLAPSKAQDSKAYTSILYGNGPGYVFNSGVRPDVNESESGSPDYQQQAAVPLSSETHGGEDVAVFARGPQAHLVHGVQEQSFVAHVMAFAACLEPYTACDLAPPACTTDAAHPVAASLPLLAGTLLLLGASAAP
# Sequence of Intestinal-type alkaline phosphatase (Mus musculus, UniProt P24822) (P24822 whole entry): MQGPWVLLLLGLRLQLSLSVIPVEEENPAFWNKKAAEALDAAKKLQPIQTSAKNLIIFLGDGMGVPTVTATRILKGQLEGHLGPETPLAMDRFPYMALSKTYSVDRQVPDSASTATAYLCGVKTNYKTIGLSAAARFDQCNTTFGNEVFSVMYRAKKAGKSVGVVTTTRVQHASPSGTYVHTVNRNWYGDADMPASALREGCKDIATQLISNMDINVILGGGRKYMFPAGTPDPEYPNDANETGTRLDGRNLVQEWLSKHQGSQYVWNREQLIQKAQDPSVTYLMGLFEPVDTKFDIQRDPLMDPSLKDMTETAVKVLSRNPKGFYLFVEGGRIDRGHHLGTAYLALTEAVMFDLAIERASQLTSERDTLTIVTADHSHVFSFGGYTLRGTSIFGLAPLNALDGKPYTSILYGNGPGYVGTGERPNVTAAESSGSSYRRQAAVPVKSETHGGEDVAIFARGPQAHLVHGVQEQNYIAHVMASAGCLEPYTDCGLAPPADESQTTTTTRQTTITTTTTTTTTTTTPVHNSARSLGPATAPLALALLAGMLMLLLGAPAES
# Sequence of Type-1 angiotensin II receptor (P30556 whole entry, the tested form may be a part): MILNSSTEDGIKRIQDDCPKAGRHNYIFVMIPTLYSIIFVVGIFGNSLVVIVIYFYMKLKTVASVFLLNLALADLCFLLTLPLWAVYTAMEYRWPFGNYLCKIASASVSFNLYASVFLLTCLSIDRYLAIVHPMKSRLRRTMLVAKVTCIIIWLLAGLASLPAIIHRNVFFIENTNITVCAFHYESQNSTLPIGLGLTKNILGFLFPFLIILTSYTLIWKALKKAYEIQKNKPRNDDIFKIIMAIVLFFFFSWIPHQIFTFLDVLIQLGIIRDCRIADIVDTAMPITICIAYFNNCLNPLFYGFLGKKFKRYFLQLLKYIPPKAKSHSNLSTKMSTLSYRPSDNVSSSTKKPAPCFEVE
# Sequence of Glyceraldehyde-3-phosphate dehydrogenase (P04406 whole entry): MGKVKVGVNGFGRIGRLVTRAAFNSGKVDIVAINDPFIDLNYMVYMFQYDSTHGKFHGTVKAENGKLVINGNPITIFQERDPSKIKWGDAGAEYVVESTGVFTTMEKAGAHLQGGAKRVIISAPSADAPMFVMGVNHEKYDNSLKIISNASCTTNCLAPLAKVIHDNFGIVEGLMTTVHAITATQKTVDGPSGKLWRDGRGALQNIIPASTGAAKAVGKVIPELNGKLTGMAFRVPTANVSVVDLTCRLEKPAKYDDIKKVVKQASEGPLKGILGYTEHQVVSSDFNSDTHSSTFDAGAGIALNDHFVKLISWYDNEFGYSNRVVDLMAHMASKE
smiles,measurement,setting,value
O=C1Nc2ccc(Br)cc2C12NNc1ccccc1O2 (centres undefined),EC50,[1],0.257 µM (active)
same,IC50,CHO,11.3 µM (inactive)
same,EC50,[2],73.1 µM (inactive)
same,CC50,[3],23.8 µM (active)
same,IC50,[4],> 100 µM (inactive)
same,AC50,[5],3.34 µM (active)
same,IC50,[6],> 100 µM (inactive)
same,IC50,[7],8.09 µM (active)
same,EC50,[8],10.1 µM (active)
same,EC50,[9],> 99 µM (inactive)
same,IC50,[10],> 100 µM (inactive)
Cc1cc2oc(=O)cc(C)c2cc1NC(=O)CCC(=O)O,IC50,[11],> 100 µM (inactive)
same,AC50,[12],> 350 µM (inactive)
same,AC50,[13],> 350 µM (inactive)
same,AC50,[14],> 350 µM (inactive)
same,IC50,[15],> 100 µM (not active)
CSc1nnc(NC(=O)c2cc(F)c(F)c(F)c2F)[nH]1,IC50,[16],> 100 µM (inactive)
same,IC50,[17],> 100 µM (not active)
same,IC50,[10],> 100 µM (inactive)
C=CCn1c(SCC(=O)N2CCN(c3ccccc3)CC2)nc2c3ccccc3nc-2c1O,EC50,[18],14.2 µM (active)
same,EC50,[19],> 120 µM (not active)
same,EC50,[20],> 100 µM (inactive)
same,EC50,[21],8.55 µM (active)
O=C(Oc1ccc2c3c(c(=O)oc2c1)CCC3)c1ccco1,IC50,Coagulation factor XII,6.22 µM (active)

# From ChEMBL document CHEMBL1201862, “PubChem BioAssay data set” (2004)
